From patent publication US11992479B2, “R-fadrozole for use in the treatment of aldostonerism” (priority 2018, dated 2024)
Where two headings read alike, the source gives them in different places. Marks after values point to notes of the source that are not given here.

Experiments:
[1] = up until 225° C., TGA/DSC
Description: The thermogravimetric analysis and differential scanning calorimetry (TGA/DSC) studies were performed using a Mettler Toledo TGA/DSC1 STARe System with a 34-position auto sampler. The samples were made using AI crucibles (40 μL; pierced). Typically 5-10 mg of sample was loaded into a pre-weighed Al crucible and was kept at 30° C. for 5 minutes, after which it was heated at 10° C./min from 30° C. to 350° C. A nitrogen purge of 40 ml/min was maintained over the sample. […] No corrections were applied to the thermogram.

[2] = tested on: estradiol; details: for Serum Estradiol: mean ± SEM
Description: (§1) All of the above assays used for measuring serum estradiol, testosterone, and FSH levels were conducted as described by the manufacture.

[3] = tested on: follicle stimulating hormone (FSH); details: for Serum FSH: mean ± SEM
Description: as §1

[4] = tested on: testosterone; details: for Serum Testosteron: mean ± SEM
Description: as §1

[5] = tested on: 11β-deoxycorticosterone (DOC); details: once daily DP13, 4-16 mg
Description: The diet consisted of 70-80 mEq/day of sodium and 80-90 mEq/day of potassium. Blood samples were obtained daily at the time points indicated in the accompanying Tables for measurements of aldosterone, 11β-deoxycorticosterone (DOC), and potassium (K^+). All of the blood samples were obtained while the subjects were seated in a resting state.
DOC was quantified by an LC-MS/MS methodology. In preparation the steroids were extracted using the Absolute/DQStereo17 Kit from Biocrates Life Sciences AG, Innsbruck, Austria. The steroids were extracted and subjected to LC-MS/MS analysis according to the manufacturer's instructions. The triple quadrupole mass spectrometer (Waters 1-Class 2D UPLC Xevo TQ-S was calibrated using the standards provided in the kit. The assays were performed as provided by the manufacturers.

[6] = tested on: cortisol; assay: ACTH (Synacten) stress test: cortisol response; details: 16 mg/day
Description: For a stress test, on day 1 of the single dose phase of the study or on day 7 of the multiple dose phase of the study an ACTH (Synacten) stress test was initiated as follows. […] Blood samples were obtained 60 min post-Synacten. The samples were analyzed for aldosterone and 11β-deoxycorticosterone (DOC) by the Clinical Chemistry Unit at the University Hospital Inselspital Bern, Bern Switzerland. Aldosterone was measured using the Liaison® chemiluminescent immunoassay kit supplied by DiaSorin S.p.A. Italy. Because this assay system uses specific monoclonal antibodies for aldosterone there are no cross reactions with other major potential reactants in the serum samples. The assays were performed according to the instructions provided by the manufacturer.
Serum cortisol, estradiol, testosterone, and follicle stimulating hormone (FSH) were measured by Covance's diagnostic unit, Harrogate, UK with the ADVIA Centaur®CP system (Siemens AG). […] The ADVIA Centaur enhanced estradiol assay is a fully automated, monoclonal competitive, chemiluminescent immunoassay, and has a sensitivity of 10 pg/ml. […] The ADVIA Centaur®CP testosterone assay is a competitive, solid phase immunoassay using direct chemiluminescent technology. All of the above assays were conducted as described by the manufacture.

[7] = tested on: ACTH-stimulated aldosterone; details: for Plasma aldosterone, Difference Post-ACTH vs Pre-ACTH: Day 1
[8] = Description: The Dynamic Vapour Sorption (DVS) studies were performed using a Surface Measurement Systems Ltd. DVS-1 No Video. The sample was loaded into a balance pan, typically 20-30 mg, and equilibrated at 0% RH. […] After completion of the sorption cycle, the sample was dried using the same method. The software used for data collection was DVSWin v3.01 No Video. Data analysis was performed using DVS Standard Analysis Suite v6.3.0 (Standard).
[9] = 4 mg once daily, Day 1 (08:00 h), pretreatment
[10] = 4 mg once daily, Day 2 (08:00 h)
[11] = 4 mg once daily, Day 9 (08:00 h)
[12] = 8 mg once daily, Day 1 (08:00 h), pretreatment
[13] = 8 mg once daily, Day 2 (08:00 h)
[14] = 8 mg once daily, Day 9 (08:00 h)
[15] = 16 mg once daily, Day 1 (08:00 h), pretreatment
[16] = 16 mg once daily, Day 2 (08:00 h)
[17] = 16 mg once daily, Day 9 (08:00 h)
[18] = once-daily oral dosing with 4, 8, or 16 mg

- Mass loss upon heating [1]: 1.4%
- Serum Estradiol [2, 9]: 98 ± 10.2 pM/L
- Serum Estradiol [2, 10]: 92 ± 9.8 pM/L
- Serum Estradiol [2, 11]: 127 ± 8.3^a,b pM/L
- Serum Estradiol [2, 12]: 90.0 ± 9.5 pM/L
- Serum Estradiol [2, 13]: 90.0 ± 12.1 pM/L
- Serum Estradiol [2, 14]: 113 ± 8.3^a pM/L
- Serum Estradiol [2, 15]: 97.4 ± 15.3 pM/L
- Serum Estradiol [2, 16]: 97.0 ± 9.4 pM/L
- Serum Estradiol [2, 17]: 114.0 ± 8.5 pM/L
- change of estradiol ([2]; 4 and 8 mg doses after 8 days of treatment): slightly increased
- effect on estradiol [2, 18]: neither inhibited estradiol
- Serum FSH [3, 9]: 2.7 ± 0.22 IU/L
- Serum FSH [3, 10]: 2.7 ± 0.27 IU/L
- Serum FSH [3, 11]: 2.7 ± 0.27 IU/L
- Serum FSH [3, 12]: 4.3 ± 0.94 IU/L
- Serum FSH [3, 13]: 4.1 ± 0.79 IU/L
- Serum FSH [3, 14]: 4.1 ± 0.91 IU/L
- Serum FSH [3, 15]: 2.6 ± 0.43 IU/L
- Serum FSH [3, 16]: 2.5 ± 0.43 IU/L
- Serum FSH [3, 17]: 2.5 ± 0.43 IU/L
- Serum Testosteron [4, 9]: 17 ± 1.9 nM/L
- Serum Testosteron [4, 10]: 18 ± 1.9 nM/L
- Serum Testosteron [4, 11]: 15 ± 1.5^b nM/L
- Serum Testosteron [4, 12]: 18 ± 1.7 nM/L
- Serum Testosteron [4, 13]: 21 ± 6.2^a nM/L
- Serum Testosteron [4, 14]: 16 ± 1.4^a nM/L
- Serum Testosteron [4, 15]: 17 ± 1.9 nM/L
- Serum Testosteron [4, 16]: 20 ± 2.0^a nM/L
- Serum Testosteron [4, 17]: 17 ± 1.7 nM/L
- highest individual DOC value [5]: 1.92 ng/mL
- highest mean increase in DOC [5]: 0.52 ng/mL
- cortisol before ACTH, the one subject below guideline [6]: 324 nmol/L
- cortisol in response to ACTH, the one subject below guideline ([6]; guideline 552 nmol/L): 504 nmol/L
Compound: N#Cc1ccc([C@H]2CCCc3cncn32)cc1.O=P(O)(O)O [DP13, (R)-(+)-5-(p-cyanophenyl)-5,6,7,8-tetrahydroimidazolium[1,5-a]pyridine dihydrogen phosphate]
- effect on circulating FSH [3, 18]: nor increased circulating testosterone or FSH
- effect on circulating testosterone [4, 18]: nor increased circulating testosterone or FSH
- Plasma levels of Aldosterone, Pre-ACTH ([7]; 4 mg once daily, Day 7, 09:30 h ([…] post-dose), mean ± SEM): 203.5 ± 26.7 pmol/L
- Plasma levels of Aldosterone, Post-ACTH ([7]; 4 mg once daily, Day 7, 11:00 h, ACTH i.v. at 10:00 h, mean ± SEM): 181.1 ± 14.3^b pmol/L
- Plasma levels of Aldosterone, Pre-ACTH ([7]; 8 mg once daily, Day 7, 09:30 h, mean ± SEM): 121.0 ± 14.0 pmol/L
- Plasma levels of Aldosterone, Post-ACTH ([7]; 8 mg once daily, Day 7, 11:00 h, mean ± SEM): 115.5 ± 10.6^b pmol/L
- Plasma levels of Aldosterone, Pre-ACTH ([7]; 16 mg once daily, Day 7, 09:30 h, mean ± SEM): 102.2 ± 13.4 pmol/L
- Plasma levels of Aldosterone, Post-ACTH ([7]; 16 mg once daily, Day 7, 11:00 h, mean ± SEM): 103.4 ± 11.1^b pmol/L
- effect on aldosterone increase elicited by ACTH ([7]; 4, 8, or 16 mg once daily oral, day 7): able to prevent the 2- to 3-fold increases in aldosterone elicited by ACTH
- Plasma aldosterone, Difference Post-ACTH vs Pre-ACTH ([7]; single dose 1 mg): (−6) pmol/L
- Plasma levels of Aldosterone, Pre-ACTH ([7]; single dose 1 mg, Day 1, 09:30 h, mean ± SD, N = six): 99 ± 13 pmol/L
- Plasma levels of Aldosterone, Post-ACTH ([7]; single dose 1 mg, Day 1, 11:00 h, mean ± SD, N = six): 94 ± 6^a pmol/L
- Plasma aldosterone, Difference Post-ACTH vs Pre-ACTH ([7]; single dose 2 mg): (−12) pmol/L
- Plasma levels of Aldosterone, Pre-ACTH ([7]; single dose 2 mg, Day 1, 09:30 h, mean ± SD, N = six): 132 ± 22 pmol/L
- Plasma levels of Aldosterone, Post-ACTH ([7]; single dose 2 mg, Day 1, 11:00 h, mean ± SD, N = six): 120 ± 20^a pmol/L
- crystalline form upon DVS treatment [8]: crystalline form does not change upon DVS treatment
